Experimental data reported in patent US9156796B2, “Benzoimidazole-carboxylic acid amide derivatives as APJ receptor modulators” (SANOFI, priority 2013, dated 2015).

Target: T1, human apelin receptor (Homo sapiens, UniProt P35414)
T1 construct: expressed in transfected cells
T1 sequence (P35414 1-380): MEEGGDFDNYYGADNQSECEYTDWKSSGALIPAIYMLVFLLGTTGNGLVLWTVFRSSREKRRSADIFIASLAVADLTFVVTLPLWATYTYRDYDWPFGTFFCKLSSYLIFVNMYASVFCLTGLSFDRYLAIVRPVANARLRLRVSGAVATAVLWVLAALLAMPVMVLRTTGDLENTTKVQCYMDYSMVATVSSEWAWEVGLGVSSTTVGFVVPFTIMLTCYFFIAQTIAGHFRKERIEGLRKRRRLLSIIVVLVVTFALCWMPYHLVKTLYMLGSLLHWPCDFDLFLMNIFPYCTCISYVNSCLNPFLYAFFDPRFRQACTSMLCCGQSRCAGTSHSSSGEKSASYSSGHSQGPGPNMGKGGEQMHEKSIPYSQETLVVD
Assay: Determination of agonism on the human apelin receptor by a calcium fluorescence assay (FLIPR)
Format: cell-based
Details: HEK293 cells stably transfected with human apelin receptor and Giaq protein, Fluo-4 calcium fluorescence, read-out: EC50 (APJ agonism)
Procedure, shortened: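 HEK293 cells stably co-expressing human apelin receptor and promiscuous Giaq, loaded 1 h at 37 °C with Fluo-4 (4 μM) in probenecid-containing Hepes buffer, pH 7.4. Compounds, at least 7 concentrations in triplicate, added in FLIPR Tetra; peak calcium fluorescence normalized to 1 μM apelin-13 as 100% to derive EC50.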

Row | SMILES | EC50
1 | CCC(CC)n1c(Cc2cccs2)nc2cc(C(=O)NC(CC3CCC(C)(C)CC3)C(=O)O)ccc21 (centres unmarked) [Example 29, 3-(4,4-Dimethyl-cyclohexyl)-2-{[1-(1-ethyl-propyl)-2-thiophen-2-ylmethyl-1H-benzoimidazole-5-carbonyl]-amino}-propionic acid] | 5660 nM
2 | C[C@@H]1CCCC[C@H]1n1c(Cc2cccs2)nc2cc(C(=O)NC(CC3CCC(C)(C)CC3)C(=O)O)ccc21 (stereo partly drawn) [Example 33, 3-(4,4-Dimethyl-cyclohexyl)-2-{[1-((1R,2R)-2-methyl-cyclohexyl)-2-thiophen-2-ylmethyl-1H-benzoimidazole-5-carbonyl]-amino}-propionic acid] | 3210 nM
3 | CCC(CC)n1c(Cc2cccs2)nc2cc(C(=O)NC3(C(=O)O)CCC(C)CC3)ccc21 (centres unmarked) [Example 34, 1-{[1-(1-Ethyl-propyl)-2-thiophen-2-ylmethyl-1H-benzoimidazole-5-carbonyl]-amino}-4-methyl-cyclohexanecarboxylic acid] | 489 nM
4 | CC1CCC(NC(=O)c2ccc3c(c2)nc(Cc2cccs2)n3[C@@H]2CCCC[C@H]2C)(C(=O)O)CC1 (stereo partly drawn) [Example 35, 4-Methyl-1-{[1-((1R,2R)-2-methyl-cyclohexyl)-2-thiophen-2-ylmethyl-1H-benzoimidazole-5-carbonyl]-amino}-cyclohexanecarboxylic acid] | 291 nM
5 | CCC(CC)n1c(Cc2cccs2)nc2cc(C(=O)NC(CC3CCC(C)CC3)C(=O)O)ccc21 (centres unmarked) [Example 36, 2-{[1-(1-Ethyl-propyl)-2-thiophen-2-ylmethyl-1H-benzoimidazole-5-carbonyl]-amino}-3-(4-methyl-cyclohexyl)-propionic acid] | 1260 nM
6 | C[C@@H]1CCCC[C@H]1n1c(Cc2cncs2)nc2cc(C(=O)N[C@@H](CC3CCCCC3)C(=O)O)ccc21 [Example 37, (S)-3-Cyclohexyl-2-{[1-((1R,2R)-2-methyl-cyclohexyl)-2-thiazol-5-ylmethyl-1H-benzoimidazole-5-carbonyl]-amino}-propionic acid] | 886 nM
7 | C[C@@H]1CCCC[C@H]1n1c(Cc2cccs2)nc2cc(C(=O)NC3(C(=O)O)CCCCC3)ccc21 [Example 38, 1-{[1-((1R,2R)-2-Methyl-cyclohexyl)-2-thiophen-2-ylmethyl-1H-benzoimidazole-5-carbonyl]-amino}-cyclohexanecarboxylic acid] | 115 nM
8 | CCC(CC)n1c(Cc2cccs2)nc2cc(C(=O)NC(CC3CCCCCC3)C(=O)O)ccc21 (centres unmarked) [Example 39, 3-Cycloheptyl-2-{[1-(1-ethyl-propyl)-2-thiophen-2-ylmethyl-1H-benzoimidazole-5-carbonyl]-amino}-propionic acid] | 1140 nM
9 | C[C@@H]1CCCC[C@H]1n1c(Cc2cccs2)nc2cc(C(=O)NC(CC3CCCCCC3)C(=O)O)ccc21 (stereo partly drawn) [Example 40, 3-Cycloheptyl-2-{[1-((1R,2R)-2-methyl-cyclohexyl)-2-thiophen-2-ylmethyl-1H-benzoimidazole-5-carbonyl]-amino}-propionic acid] | 915 nM
10 | C[C@@H]1CCCC[C@H]1n1c(Cc2cccs2)nc2cc(C(=O)NC(CC(=O)O)CC3CCCCC3)ccc21 (stereo partly drawn) [Example 51, 4-Cyclohexyl-3-{[1-((1R,2R)-2-methyl-cyclohexyl)-2-thiophen-2-ylmethyl-1H-benzoimidazole-5-carbonyl]-amino}-butyric acid] | 211 nM

Other lines, results leading:

Row | EC50 | SMILES
11 | 2200 nM | CCc1ccc(CC(NC(=O)c2ccc3c(c2)nc(Cc2cccs2)n3C(CC)CC)C(=O)O)cc1 (centres unmarked) [Example 30, 3-(4-Ethyl-phenyl)-2-{[1-(1-ethyl-propyl)-2-thiophen-2-ylmethyl-1H-benzoimidazole-5-carbonyl]-amino}-propionic acid]
12 | 4110 nM | CCC(CC)n1c(Cc2cccs2)nc2cc(C(=O)NC(Cc3ccc(C(F)(F)F)cc3)C(=O)O)ccc21 (centres unmarked) [Example 31, 2-{[1-(1-Ethyl-propyl)-2-thiophen-2-ylmethyl-1H-benzoimidazole-5-carbonyl]-amino}-3-(4-trifluoromethyl-phenyl)-propionic acid]
13 | 4570 nM | CCC(CC)n1c(Cc2cccs2)nc2cc(C(=O)N[C@@H](Cc3ccc(Cl)c(Cl)c3)C(=O)O)ccc21 [Example 32, (S)-3-(3,4-Dichloro-phenyl)-2-{[1-(1-ethyl-propyl)-2-thiophen-2-ylmethyl-1H-benzoimidazole-5-carbonyl]-amino}-propionic acid]
14 | 2430 nM | CCC(CC)n1c(Cc2ccco2)nc2cc(C(=O)NC(CC(=O)O)C(C)C)ccc21 (centres unmarked) [Example 41, 3-{[1-(1-Ethyl-propyl)-2-furan-2-ylmethyl-1H-benzoimidazole-5-carbonyl]-amino}-4-methyl-pentanoic acid]
15 | 1100 nM | CCC(CC)n1c(Cc2ccco2)nc2cc(C(=O)NC(CC(=O)O)c3ccccc3)ccc21 (centres unmarked) [Example 42, 3-{[1-(1-Ethyl-propyl)-2-furan-2-ylmethyl-1H-benzoimidazole-5-carbonyl]-amino}-3-phenyl-propionic acid]
16 | 14500 nM | CCC(CC)n1c(CC2CCCC2)nc2cc(C(=O)NC(CC(=O)O)c3ccccc3)ccc21 (centres unmarked) [Example 43, 3-{[2-Cyclopentylmethyl-1-(1-ethyl-propyl)-1H-benzoimidazole-5-carbonyl]-amino}-3-phenyl-propionic acid]
17 | 258 nM | CCC(CC)n1c(Cc2cccs2)nc2cc(C(=O)NC(CC(=O)O)C3CCCCC3)ccc21 (centres unmarked) [Example 44, 3-Cyclohexyl-3-{[1-(1-ethyl-propyl)-2-thiophen-2-ylmethyl-1H-benzoimidazole-5-carbonyl]-amino}-propionic acid]
18 | 552 nM | CCCCC(CC(=O)O)NC(=O)c1ccc2c(c1)nc(Cc1cccs1)n2C(CC)CC (centres unmarked) [Example 45, 3-{[1-(1-Ethyl-propyl)-2-thiophen-2-ylmethyl-1H-benzoimidazole-5-carbonyl]-amino}-heptanoic acid]
19 | 112 nM | CCC(CC)n1c(Cc2cccs2)nc2cc(C(=O)NC(CC(=O)O)CC3CCCCC3)ccc21 (centres unmarked) [Example 46, 4-Cyclohexyl-3-{[1-(1-ethyl-propyl)-2-thiophen-2-ylmethyl-1H-benzoimidazole-5-carbonyl]-amino}-butyric acid]
20 | 2580 nM | CCC(CC)n1c(Cc2cccs2)nc2cc(C(=O)NC(CC(=O)O)CC(C)(C)C)ccc21 (centres unmarked) [Example 47, 3-{[1-(1-Ethyl-propyl)-2-thiophen-2-ylmethyl-1H-benzoimidazole-5-carbonyl]-amino}-5,5-dimethyl-hexanoic acid]
21 | 4190 nM | CCC(CC)n1c(Cc2cccs2)nc2cc(C(=O)N[C@@H](CC(=O)O)CC(C)C)ccc21 [Example 48, (R)-3-{[1-(1-Ethyl-propyl)-2-thiophen-2-ylmethyl-1H-benzoimidazole-5-carbonyl]-amino}-5-methyl-hexanoic acid]
22 | 7070 nM | CCC(CC)n1c(Cn2cccn2)nc2cc(C(=O)N[C@H](CC(=O)O)CC(C)C)ccc21 [Example 49, (S)-3-{[1-(1-Ethyl-propyl)-2-pyrazol-1-ylmethyl-1H-benzoimidazole-5-carbonyl]-amino}-5-methyl-hexanoic acid]
23 | 205 nM | CCC(CC)n1c(Cc2cncs2)nc2cc(C(=O)N[C@H](CC(=O)O)CC(C)C)ccc21 [Example 50, (S)-3-{[1-(1-Ethyl-propyl)-2-thiazol-5-ylmethyl-1H-benzoimidazole-5-carbonyl]-amino}-5-methyl-hexanoic acid]
